{"source": "patent US6936447B1", "about": "“Autoinducer molecule” (priority 2000, dated 2005)", "key": {"LasR protein": {"target": "T1, LasR protein (Pseudomonas aeruginosa, UniProt P25084)", "T1 construct": "expressed in transfected cells; host or cells: E. coli MG4 containing pKDT17 (plac-lasR plus lasB::lacZ reporter)", "T1 sequence (P25084 whole entry)": "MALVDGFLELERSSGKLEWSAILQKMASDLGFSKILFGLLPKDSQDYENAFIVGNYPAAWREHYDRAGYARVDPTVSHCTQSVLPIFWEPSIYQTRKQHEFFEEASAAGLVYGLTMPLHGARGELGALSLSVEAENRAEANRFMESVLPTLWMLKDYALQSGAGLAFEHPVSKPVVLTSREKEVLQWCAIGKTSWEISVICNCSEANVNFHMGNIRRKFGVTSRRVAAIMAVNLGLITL", "assay": "Activation of the LasR protein by optical isomers"}, "[1]": {"test_system": "V. fischeri luminescence genes (LuxR) in E. coli VJS533 (pHV200I−)", "conditions": "literature (Eberhard et al. 1986), cited from earlier work"}, "[2]": {"test_system": "conjugal transfer genes in Agrobacterium tumefaciens", "conditions": "literature (Zhang et al. 1993); cited from earlier work"}, "[3]": {"test_system": "lasB promoter activity in E. coli MG4 (pKDT17, lasR + lasB::lacZ)", "assay": "P. aeruginosa autoinducer bioassay (lasB::lacZ β-galactosidase reporter)", "format": "cell-based", "conditions": "for β-galactosidase (lasB::lacZ promoter activity): average of four experiments ± range", "description": "(§1) For production of PAI, cultures of P. aeruginosa PAO1 or E. coli TB1 containing pLasI-1 were grown to the late-logarithmic phase in A medium (Maniatis, T., Fritsch, E. F., and Sambrook, J. (1992) Molecular Cloning: A Laboratory Manual, ed. Nolan C. (Cold Spring Harbor Laboratory, Cold Spring Harbor, N.Y.), 2nd Ed) supplemented with 0.4% glucose, 0.05% yeast extract, and 1 mM MgSO4 with shaking at 37° C., unless otherwise specified. For subsequent use in autoinducer bioassays, E. coli MG4 containing pKDT17 was grown in supplemented A medium at 30° C. with shaking, and E. coli VJS533 containing pHV200I^− was grown in L broth (Silhavy, T. J., Berman, M. L. and Enquist, L. W. (1984) Experiments with Gene Fusions (Cold Spring Harbor Lab., Cold Spring Harbor, N.Y.), P. 217) at 30° C. with shaking. For plasmid screening and maintenance, ampicillin (100 μg/ml) was included in E. coli cultures, and carbenicillin (200 ug/ml) was included in cultures of P. aeruginosa.\nFor the bioassay, overnight cultures of E. coli containing the lasB-promoter reporter, pKDT17 were diluted in supplemented A mediun to an optical density of 0.1 at 660 nm, and stored on ice. Each bioassay consisted of 2 ml of the cell suspension plus the test sample. After 5.5 h at 30° C. with shaking, β-galactosidase activity was measured by the CHCl3-sodium dodecyl sulfate method described by Miller (Miller, J. A. (1976) Experiments in Molecular Genetics (Cold Spring Harbor Lab., Cold Spring Harbor, N.Y.), pp. 352-355). As described in Example 1, there was a linear dose response to autoinducer in this bioassay. Without addition of autoinducer, β-galactosidase activities were 25±10 Miller units, and with saturating amounts of autoinducer, β-galactosidase activities were 1300±200 Miller units. A unit of P. aeruginosa autoinducer activity is defined as that amount required to achieve ½-saturation in the bioassay."}, "[4]": {"test_system": "V. fischeri luminescence genes (LuxR) in E. coli VJS533 (pHV200I−)", "assay": "V. fischeri autoinducer bioassay (luminescence)", "format": "cell-based", "description": "as §1\nThe quantitative assay for VAI was based on those described elsewhere (Kaplan, H. B. and Greenberg, E. P. (1985) J. Bacteriol. 163, 1210-1214; Bainton, N. J., Bycroft, B. W., Chhabra, S. R., Stead, P., Gledhill, L., Hill, P. J., Rees, C. E. D., Winson, M. K., Salmond, G. P. C., Stewart, G. S. A. B. and Williams, P. (1992) Gene 116, 87-91; Nealson, K. H. (1977) Arch. Microbiol. 112, 73-79). E. coli VJS533 containing pHV200I^− was used to test for V. fischeri autoinducer activity. The plasmid, pHV200I^− contains all of the V. fischeri genes necessary for autoinducible luminescence in E. coli, however, the gene encoding autoinducer synthase, luxI, is inactivated such that E. coli containing pHV200I^− is not luminescent without addition of VAI. Overnight cultures of E. coli containing pHV200I^− were diluted to an optical density of 0.01 at 660 nm in an assay medium consisting of 0.05% tryptone, 0.03% glycerol, 100 mM NaCl, 50 mM MgSO4, and 10 mM potassium phosphate, pH 7. […] After 3 hours at room temperature, luminescence was measured by using a Beckman LS 1800 Scintillation Counter that was set for single photon counting. […]"}}, "note": "Like-named read-outs stand apart in the source and are kept apart here."}
{"molecule": "CCCCCCCCCC(=O)CC(=O)N[C@H]1CCOC1=O", "note": "(single isomer, unassigned) [D-isomer, N-(3-oxododecanoyl)homoserine lactone]", "values": [{"measurement": "activity of the isomer (activation of the LasR protein)", "setting": "LasR protein", "result": "small amount of activity"}, {"measurement": "inhibition of the ability of the L-isomer to activate the LasR protein", "setting": "LasR protein; by attaching to the autoinducer binding domain of LasR", "result": "can inhibit"}]}
{"molecule": "CCCCCC(=O)CC(=O)NC1CCOC1=O", "note": "(centres unmarked) [AAI, N-(3-oxooctanoyl)homoserine lactone]", "values": [{"measurement": "activity with V. fischeri LuxR / luminescence genes", "setting": "[1]", "result": "shows activity"}, {"measurement": "activity with V. fischeri LuxR / luminescence genes", "setting": "[1]; listed as N-(3-oxooctanoyl)homoserine lactone", "result": "some activity"}, {"measurement": "activity as the A. tumefaciens autoinducer", "setting": "[2]", "result": "shows activity"}, {"measurement": "activity as P. aeruginosa autoinducer (inducer of lasB promoter), in words", "setting": "[3]", "result": "considerable activity"}, {"measurement": "β-galactosidase (lasB::lacZ promoter activity)", "setting": "[3]; 50 nM autoinducer added", "result": "56 +/− 5 Miller units"}, {"measurement": "β-galactosidase (lasB::lacZ promoter activity)", "setting": "[3]; 500 nM autoinducer added", "result": "733 +/− 50 Miller units"}, {"measurement": "concentration required for activity as the P. aeruginosa autoinducer, compared with PAI", "setting": "[3]; relative to PAI", "result": "higher"}, {"measurement": "maximal response as P. aeruginosa autoinducer, compared with PAI", "setting": "[3]; relative to PAI", "result": "lower"}]}
{"molecule": "CCCCCCCCCC(=O)CC(=O)NC1CCOC1=O", "note": "[N-(3-oxododecanoyl) L-homoserine lactone, N-(3-oxododecanoyl)homoserine lactone]", "values": [{"measurement": "VAI activity (induction of luminescence) of HPLC peaks", "setting": "[4]; HPLC fractions of PAI peaks", "result": "no significant VAI activity"}, {"measurement": "activity of the isomer (activation of the LasR protein)", "setting": "LasR protein", "result": "active form"}, {"measurement": "activity as P. aeruginosa autoinducer (inducer of lasB promoter), in words", "setting": "[3]", "result": "biologically active"}, {"measurement": "EC50", "setting": "[3]; Escherichia coli, read-out: half-maximal response in P. aeruginosa autoinducer bioassay", "result": "3 to 5", "unit": "nM"}]}
{"molecule": "CCCC(=O)CC(=O)N[C@H]1CCOC1=O", "note": "[VAI, N-(3-oxohexanoyl)homoserine lactone]", "values": [{"measurement": "concentration giving maximal response in the V. fischeri autoinducer bioassay", "setting": "[4]", "result": "about 50 nM"}, {"measurement": "EC50", "setting": "[4]; synthetic VAI standard curve, read-out: half-maximal response in V. fischeri autoinducer bioassay (one unit of activity)", "result": "~25", "unit": "nM"}, {"measurement": "activity as P. aeruginosa autoinducer (inducer of lasB promoter), in words", "setting": "[3]", "result": "did not show any detectable activity"}, {"measurement": "β-galactosidase (lasB::lacZ promoter activity)", "setting": "[3]; 50 nM autoinducer added", "result": "33 +/− 3 Miller units"}, {"measurement": "β-galactosidase (lasB::lacZ promoter activity)", "setting": "[3]; 500 nM autoinducer added", "result": "34 +/− 1 Miller units"}, {"measurement": "activity in the P. aeruginosa autoinducer bioassay", "setting": "[3]; concentrations as high as 1 uM", "result": "no detectable activity"}]}
